Consider 1 molecule from US11047848B2, “Cellular discovery platform for neurodegenerative diseases” (Whitehead Institute for Biomedical Research, priority 2013, dated 2021).

This experiment has as its system primary cortical cultures. In words: Optimization of the NO sensor FL2 in rat primary cortical cultures. The note with it: 500 μM DETA-NONOate for 30 min, DIV 14-21; FIG. 20. The experiment is classed as cell-based. As for the experimental part: FIG. 20. Optimization of the NO sensor, FL2, using an NO donor, DETA-NONOate. FL2 dye was loaded after exposing primary cortical cultures (DIV 14-21) to 500 μM DETA-NONOate for 30 min. […] Control cultures exposed to dye without an NO donor are shown in the upper panel. A single representative experiment is shown.
Embryos were harvested by cesarean section from anesthetized pregnant Sprague-Dawley rats at embryonic day 18. Cerebral cortices were isolated and dissociated with Accumax (Innovative Cell Technologies, Inc) digestion for 20 min at 37° C. and triutration with Pasteur pipette. Poly-ornithine and lamine-coated 96 well plates or 8 well-chambered coverglass (Lab-Tek; 70378-81) were seeded with 4×10^4 or 8×10^4 cells respectively in neurobasal medium (Life Technologies) supplemented with B27 (Life Technologies), 0.5 mM glutamine, 25 μM β-mercaptoethanol, penicillin (100 IU/ml) and streptomycin (100 μg/ml). One third of the medium was changed every 3 to 4 days. As a surrogate marker of cell viability, cellular ATP content was measured using the ViaLight Plus kit (Lonza).
The FL2 sensor used in this study was a non-acidified and non-esterified version of the FL2-related sensors that have been previously published^23,24,53,55. A working 1 mM solution of FL2 (batch SJL #1768) in DMSO (Sigma 276855) was stable for at least 3 months at −20° C. […]

As to `NCCN(CCN)/[N+]([O-])=N/O` [DETA-NONOate], the “FL2 response (NO signal)” value is “robust FL2 response”.
